Experiments:
[1] = system: Propionibacterium avidum ATCC 25577; assay: MIC and MBC by the agar dilution method; format: cell-based; conditions: pH 5.5
Experimental: (§1) To assess the anti-microbial potency of Neramexane against acne relevant bacterias the minimal inhibitory concentration (MIC) and minimal bactericidal concentration (MBC) against the following bacterias is established: The MICs of the samples are determined using the agar dilution method based on DIN 58940. Petri dishes of 5.5 cm diameter are poured with 2.5 ml of freshly prepared Mueller-Hinton agar (Merck company, Cat-No 1.05437) or Wilkins-Chalgren-Agar (Oxoid company, Cat-No CM643), maintained in liquid form at 50° C., to which the sample dilutions at various concentrations have been added at 50.0 vol.-%. To prepare the starting sample dilutions, a 12.5%, 3.12% suspension of the respective sample solution is prepared with Aqua purificata. From these stock-solutions, further dilutions are prepared with Aqua purificata. All test compounds are adjusted to pH 5.5. For test product no. 1, separate dilutions adjusted to pH 6.0 and pH 7.4 are also prepared. For inoculation, 1 μl of the respective germ suspension is placed on the centre of each agar plate. After drying, inoculated plates are incubated at 36.0±2.0° C. The basis for the length of incubation period is the respective growth control cultivated in parallel. The test microbe suspension is prepared by inoculating a few individual colonies of the respective bacteria into sterile saline solution until a turbidity corresponding to the McFarland standard 1.0 (approximately 10^8 cfu/ml) is reached. After that, the test microbe suspensions are further diluted 1:10 with saline solution and the microbial counts (see Table 21) are determined by the surface spread method using a spiral plater. The agar plates are incubated under the conditions given in Table 22 and subsequently evaluated. The MIC-values as given represent the lowest concentration of the active substance at which there is no macroscopically visible growth. Minimal, barely visible growth or few small individual colonies are evaluated as inhibition. [table] All negative tests of the determination of the minimal bactericial concentration are the basis of verification of remaining germs, the inoculated agar segments are cut and put in Mueller-Hinton-Bouillon (germ 1) or Wilkins-Chalgren-Bouillon (germs 2-4). After an adequate incubation period at 36.0±2.0° C. (as judged from a control without test compound), the tests are checked manually on microbial growth (=turbidity) and the minimal bactericidal concentration is determined. MBC indicates the concentration without marked turbidity. Grown germs are checked for identity to rule out unspecific contaminations. The following results are summarized and tabulated: • a) Results of the Minimal Inhibitory Concentration (MIC)* • b) Results of the Minimal Bactericidal Concentration (MBC) *The MIC is the concentration without macroscopical growth. Scarcely apparent, minimum growth or few single colonies are not considered. The controls must have a respectively good developed growth. There must be no growth on the agar plates for the sterile control. The growth of bacteria is indicated for the duplicate plates by a +(i.e., growth) or a −(i.e., no growth), +− indicates weak growth on both plates or growth on one plate and no growth on the other plate. All bacteria show appropriate growth on the respective control plate not containing any test compound. No influence of the used diluent (Aqua purifacata) was observed. No contamination is observed on the control-plates.

[2] = system: Propionibacterium acnes ATCC 11828; assay: MIC and MBC by the agar dilution method; format: cell-based
Experimental: as §1

[3] = final concentration 0.08 %, pH 5.5
[4] = final concentration 0.08 %, pH 6.0
[5] = final concentration 0.16 %, pH 5.5
[6] = final concentration 0.16 %, pH 6.0
[7] = final concentration 0.16 %, pH 7.4
[8] = final concentration 0.31 %, pH 5.5
[9] = final concentration 0.31 %, pH 6.0
[10] = final concentration 0.31 %, pH 7.4
[11] = final concentration 0.63 %, pH 5.5
[12] = final concentration 0.63 %, pH 6.0
[13] = final concentration 0.63 %, pH 7.4
[14] = final concentration 1.56 %, pH 5.5
[15] = final concentration 1.56 %, pH 6.0
[16] = final concentration 1.56 %, pH 7.4
[17] = final concentration 2.50 %, pH 5.5
[18] = final concentration 2.50 %, pH 6.0
[19] = final concentration 2.50 %, pH 7.4
[20] = final concentration 3.13 %, pH 5.5
[21] = final concentration 3.13 %, pH 6.0
[22] = final concentration 3.13 %, pH 7.4
[23] = final concentration 6.25 %, pH 5.5
[24] = final concentration 6.25 %, pH 6.0
[25] = final concentration 6.25 %, pH 7.4

- growth of bacteria on duplicate plates (MIC determination) ([1]; final concentration 0.01 %): + +
- growth of bacteria on duplicate plates (MIC determination) ([1]; final concentration 0.04 %): + +
- growth of bacteria on duplicate plates (MIC determination) ([1]; final concentration 0.08 %): − −
- growth of bacteria on duplicate plates (MIC determination) ([1]; final concentration 0.16 %): − −
- growth of bacteria on duplicate plates (MIC determination) ([1]; final concentration 0.31 %): − −
- growth of bacteria on duplicate plates (MIC determination) ([1]; final concentration 0.63 %): − −
- growth of bacteria on duplicate plates (MIC determination) ([1]; final concentration 1.56 %): − −
- growth of bacteria on duplicate plates (MIC determination) ([1]; final concentration 2.50 %): − −
- growth of bacteria on duplicate plates (MIC determination) ([1]; final concentration 3.13 %): − −
- growth of bacteria on duplicate plates (MIC determination) ([1]; final concentration 6.25 %): − −
- MIC [1]: 0.08%
- growth of bacteria on duplicate plates (MIC determination) ([2]; final concentration 0.01 %, pH 5.5): + +
- growth of bacteria on duplicate plates (MIC determination) ([2]; final concentration 0.01 %, pH 6.0): + +
- growth of bacteria on duplicate plates (MIC determination) ([2]; final concentration 0.01 %, pH 7.4): + +
- growth of bacteria on duplicate plates (MIC determination) ([2]; final concentration 0.04 %, pH 5.5): + +
- growth of bacteria on duplicate plates (MIC determination) ([2]; final concentration 0.04 %, pH 6.0): + +
- growth of bacteria on duplicate plates (MIC determination) ([2]; final concentration 0.04 %, pH 7.4): + +
- growth of bacteria on duplicate plates (MIC determination) [2, 3]: − −
- growth of bacteria on duplicate plates (MIC determination) [2, 4]: − −
- growth of bacteria on duplicate plates (MIC determination) ([2]; final concentration 0.08 %, pH 7.4): + +
- growth of bacteria on duplicate plates (MIC determination) [2, 5]: − −
- growth of bacteria on duplicate plates (MIC determination) [2, 6]: − −
- growth of bacteria on duplicate plates (MIC determination) [2, 7]: − −
- growth of bacteria on duplicate plates (MIC determination) [2, 8]: − −
- growth of bacteria on duplicate plates (MIC determination) [2, 9]: − −
- growth of bacteria on duplicate plates (MIC determination) [2, 10]: − −
- growth of bacteria on duplicate plates (MIC determination) [2, 11]: − −
- growth of bacteria on duplicate plates (MIC determination) [2, 12]: − −
- growth of bacteria on duplicate plates (MIC determination) [2, 13]: − −
- growth of bacteria on duplicate plates (MIC determination) [2, 14]: − −
- growth of bacteria on duplicate plates (MIC determination) [2, 15]: − −
- growth of bacteria on duplicate plates (MIC determination) [2, 16]: − −
- growth of bacteria on duplicate plates (MIC determination) [2, 17]: − −
- growth of bacteria on duplicate plates (MIC determination) [2, 18]: − −
- growth of bacteria on duplicate plates (MIC determination) [2, 19]: − −
- growth of bacteria on duplicate plates (MIC determination) [2, 20]: − −
- growth of bacteria on duplicate plates (MIC determination) [2, 21]: − −
- growth of bacteria on duplicate plates (MIC determination) [2, 22]: − −
- growth of bacteria on duplicate plates (MIC determination) [2, 23]: − −
- growth of bacteria on duplicate plates (MIC determination) [2, 24]: − −
- growth of bacteria on duplicate plates (MIC determination) [2, 25]: − −
- MIC ([2]; pH 5.5): 0.08%
- MIC ([2]; pH 6.0): 0.08%
- MIC ([2]; pH 7.4): 0.16%
SMILES: CC1(C)CC(C)(C)CC(C)(N)C1.CS(=O)(=O)O [Neramexane mesylate]
- growth of bacteria (MBC determination) ([1]; final concentration 0.08 %): + +
- growth of bacteria (MBC determination) ([1]; final concentration 0.16 %): + +
- growth of bacteria (MBC determination) ([1]; final concentration 0.31 %): + +
- growth of bacteria (MBC determination) ([1]; final concentration 0.63 %): − −
- growth of bacteria (MBC determination) ([1]; final concentration 1.56 %): − −
- growth of bacteria (MBC determination) ([1]; final concentration 2.50 %): − −
- growth of bacteria (MBC determination) ([1]; final concentration 3.13 %): − −
- growth of bacteria (MBC determination) ([1]; final concentration 6.25 %): − −
- MBC [1]: 0.63%
- growth of bacteria (MBC determination) [2, 3]: + +
- growth of bacteria (MBC determination) [2, 4]: + +
- growth of bacteria (MBC determination) [2, 5]: + +
- growth of bacteria (MBC determination) [2, 6]: + +
- growth of bacteria (MBC determination) [2, 7]: + +
- growth of bacteria (MBC determination) [2, 8]: + +
- growth of bacteria (MBC determination) [2, 9]: + +
- growth of bacteria (MBC determination) [2, 10]: + +
- growth of bacteria (MBC determination) [2, 11]: + +
- growth of bacteria (MBC determination) [2, 12]: − −
- growth of bacteria (MBC determination) [2, 13]: + +
- growth of bacteria (MBC determination) [2, 14]: − −
- growth of bacteria (MBC determination) [2, 15]: − −
- growth of bacteria (MBC determination) [2, 16]: − −
- growth of bacteria (MBC determination) [2, 17]: − −
- growth of bacteria (MBC determination) [2, 18]: − −
- growth of bacteria (MBC determination) [2, 19]: − −
- growth of bacteria (MBC determination) [2, 20]: − −
- growth of bacteria (MBC determination) [2, 21]: − −
- growth of bacteria (MBC determination) [2, 22]: − −
- growth of bacteria (MBC determination) [2, 23]: − −
- growth of bacteria (MBC determination) [2, 24]: − −
- growth of bacteria (MBC determination) [2, 25]: − −
- MBC ([2]; pH 5.5): 1.56%
- MBC ([2]; pH 6.0): 0.63%
- MBC ([2]; pH 7.4): 1.56%

Source: US20140228440A1, “1-AMINO-ALKYLCYCLOHEXANE DERIVATIVES FOR THE TREATMENT OF INFLAMMATORY SKIN DISEASES” (MERZ PHARMA GmbH & CO. KGaA, priority 2008, published 2014)
